# Assay results reported in patent US10301280B2 (Plexxikon Inc., priority 2012, dated 2019).
# Test system: BaF3-FL KIT D816V or BaF3-FL KIT V560G/D816V cell line
# Experiment: Cell-based assays of c-Kit mutant kinase activity (cell growth, ATPlite)
# Settings: at least one of the c-kit cell assays of Example 26
# Experimental: The c-Kit mutant D816V inhibitors were assessed using an engineered BaF3-FL KIT D816V or BaF3-FL KIT V560G/D816V cell line. The BaF3-FL KIT D816V cell lines were created by introduction of KIT mutant (D816V) full length constructs that render the cells dependent on the introduced kinase for growth. Inhibitors of c-Kit mutant D816V kinase reduce or eliminate the mediated c-kit mutant D816V kinase activation, resulting in reduced cell proliferation of the BaF3-FL Kit mutant D816V cells. This inhibition is measured by the effect of compound concentration on cell growth to assess IC50 values. BaF3-FL KIT D816V cells were seeded at 1×10^4 cells per well of a 96 well cell culture plate in 50 μl of cell culture medium of RPMI Medium 1X (Invitrogen #11875-093) supplemented with 10% FBS (Invitrogen #10438), 1% Non Essential Amino Acids(Invitrogen #11140), 1% Penicillin Streptomycin (Invitrogen #15140), 1% L-Glutamine (Invitrogen #25030-081). Compounds were dissolved in DMSO at a concentration of 5 mM and were serially diluted 1:3 for a total of eight points and added to the cells to a final maximum concentration of 10 μM in 100 μl cell culture medium (final concentration 0.2% DMSO). Cells were also treated with Dasatinib as a positive control. The cells were incubated at 37° C., 5% CO2 for three days. ATPlite Buffer (Perkin Elmer #6016739) and substrate were equilibrated to room temperature, and enzyme/substrate Recombinant Firefly Luciferase/D-Luciferin was reconstituted. The cell plates were equilibrated to room temperature for 30 minutes, then lysed by addition of 25 uL per well of the ATPlite Reagent. The plate was mixed for 5 minutes on a plate shaker to lyse the cells. The plates were read on a Tecan Safire using Luminescence protocol modified to read 0.1 s per well. The luminescence reading assesses the ATP content, which correlates directly with cell number such that the reading as a function of compound concentration is used to determine the IC50 value.
# Plasmids P75635 and P75565 were engineered for mammalian cell expression. In both plasmids, full-length human v-kit Hardy-Zuckerman 4 feline sarcoma viral oncogene homolog gene (NCBI accession NM_000222, KIT, residues M1-V976) was subcloned into the pCI-Neo vector (Promega E1841). Plasmid P75635 contains the mutation of residue Aspartic acid 816 to Valine. Plasmid P75565 contains the double mutation of residues Valine 560 to Glycine and Aspartic acid 816 to Valine. The pCI-neo Mammalian Expression Vector carries the human cytomegalovirus (CMV) immediate-early enhancer/promoter region to promote constitutive expression of KIT and contains the neomycin phosphotransferase gene, a selectable marker.
# It is understood that the results of these assays may vary as assay conditions are varied. Inhibition levels determined under the conditions described herein represent a relative activity for the compounds tested under the specific conditions employed. The cell based assays are likely to show variability due to the complexity of the system and the sensitivity thereof to any changes in the assay conditions. […] In some instances, the compounds were not tested in all of the assays, or assay results were not valid.
row,Structure (SMILES),IC50 [µM]
1,"Cc1ncc(-c2cc3cc(NC(=O)c4[nH]nc(C)c4C)cnc3[nH]2)s1 [P-2091, 3,4-dimethyl-N-[2-(2-methylthiazol-5-yl)-1H-pyrrolo[2,3-b]pyridin-5-yl]-1H-pyrazole-5-carboxamide]",< 10
2,"Cc1n[nH]c(C(=O)Nc2cnc3[nH]c(-c4ccnc(N5CCOCC5)c4)cc3c2)c1C [P-2110, 3,4-dimethyl-N-[2-(2-morpholino-4-pyridyl)-1H-pyrrolo[2,3-b]pyridin-5-yl]-1H-pyrazole-5-carboxamide]",< 10
3,"Cc1n[nH]c(C(=O)Nc2cnc3[nH]c(-c4cccc(Cl)c4)cc3c2)c1C [P-2095, N-[2-(3-chlorophenyl)-1H-pyrrolo[2,3-b]pyridin-5-yl]-3,4-dimethyl-1H-pyrazole-5-carboxamide]",< 10
4,"Cc1[nH]nc(C(=O)Nc2cnc3[nH]c(-c4ccccc4OC(F)F)cc3c2)c1C [P-2263, N-(2-(2-(difluoromethoxy)phenyl)-1H-pyrrolo[2,3-b]pyridin-5-yl)-4,5-dimethyl-1H-pyrazole-3-carboxamide]",< 10
5,"CONC(=O)c1cc(-c2cc3cc(NC(=O)c4n[nH]c(C)c4C)cnc3[nH]2)ccn1 [P-2223, 4-(5-(4,5-dimethyl-1H-pyrazole-3-carboxamido)-1H-pyrrolo[2,3-b]pyridin-2-yl)-N-methoxypicolinamide]",< 10
6,"Cc1[nH]nc(C(=O)Nc2cnc3[nH]c(C4=CC(C)(C)NC(C)(C)C4)cc3c2)c1C [P-2266, 4,5-dimethyl-N-(2-(2,2,6,6-tetramethyl-1,2,3,6-tetrahydropyridin-4-yl)-1H-pyrrolo[2,3-b]pyridin-5-yl)-1H-pyrazole-3-carboxamide]",< 10
7,"Cc1n[nH]c(C(=O)Nc2cnc3[nH]c(C4=CCCCC4)cc3c2)c1C [P-2307, N-[2-(cyclohexen-1-yl)-1H-pyrrolo[2,3-b]pyridin-5-yl]-3,4-dimethyl-1H-pyrazole-5-carboxamide]",< 10
8,"Cc1n[nH]c(C(=O)Nc2cnc3[nH]c(-c4ccccc4Cl)cc3c2)c1C [P-2096, N-[2-(2-chlorophenyl)-1H-pyrrolo[2,3-b]pyridin-5-yl]-3,4-dimethyl-1H-pyrazole-5-carboxamide]",< 10
9,"Cc1n[nH]c(C(=O)N(C)c2cnc3[nH]c(-c4ccccc4)cc3c2)c1C [P-2304, N,3,4-trimethyl-N-(2-phenyl-1H-pyrrolo[2,3-b]pyridin-5-yl)-1H-pyrazole-5-carboxamide]",< 10
10,"Cc1[nH]nc(C(=O)Nc2cnc3[nH]c(-c4ccc(C5CC5)nc4)cc3c2)c1C [P-2255, N-(2-(6-cyclopropylpyridin-3-yl)-1H-pyrrolo[2,3-b]pyridin-5-yl)-4,5-dimethyl-1H-pyrazole-3-carboxamide]",< 10
11,"Cc1n[nH]c(C(=O)Nc2cnc3[nH]c(-c4cnn(C(F)F)c4)cc3c2)c1C [P-2140, N-[2-[1-(difluoromethyl)pyrazol-4-yl]-1H-pyrrolo[2,3-b]pyridin-5-yl]-3,4-dimethyl-1H-pyrazole-5-carboxamide]",< 10
12,"CC(=O)N1CCN(c2cc(-c3cc4cc(NC(=O)c5n[nH]c(C)c5C)cnc4[nH]3)ccn2)CC1 [P-2214, N-(2-(2-(4-acetylpiperazin-1-yl)pyridin-4-yl)-1H-pyrrolo[2,3-b]pyridin-5-yl)-4,5-dimethyl-1H-pyrazole-3-carboxamide]",< 10
13,"Cc1[nH]nc(C(=O)Nc2cnc3[nH]c(-c4cnn(C5COC5)c4C)cc3c2)c1C [P-2196, 4,5-dimethyl-N-(2-(5-methyl-1-(oxetan-3-yl)-1H-pyrazol-4-yl)-1H-pyrrolo[2,3-b]pyridin-5-yl)-1H-pyrazole-3-carboxamide]",< 10
14,CCOC(=O)CCNC(=O)Nc1cnc2[nH]c(-c3ccccc3)cc2c1 [P-2006],< 10
15,"Cc1[nH]nc(C(=O)Nc2cnc3[nH]c(-c4ccnc(C(=O)NC(C)C)c4)cc3c2)c1C [P-2229, 4-(5-(4,5-dimethyl-1H-pyrazole-3-carboxamido)-1H-pyrrolo[2,3-b]pyridin-2-yl)-N-isopropylpicolinamide]",< 10
16,"Cc1n[nH]c(C(=O)Nc2cnc3[nH]c(-c4cccc(C(=O)N5CCCC5)c4)cc3c2)c1C [P-2107, 3,4-dimethyl-N-[2-[3-(pyrrolidine-1-carbonyl)phenyl]-1H-pyrrolo[2,3-b]pyridin-5-yl]-1H-pyrazole-5-carboxamide]",< 10
17,"Cc1[nH]nc(C(=O)Nc2cnc3[nH]c(-c4ccnc(C(=O)NCC(C)C)c4)cc3c2)c1C [P-2228, 4-(5-(4,5-dimethyl-1H-pyrazole-3-carboxamido)-1H-pyrrolo[2,3-b]pyridin-2-yl)-N-isobutylpicolinamide]",< 10
18,"CC(=O)Nc1cccc(-c2cc3cc(NC(=O)c4[nH]nc(C)c4C)cnc3[nH]2)c1 [P-2100, N-[2-(3-acetamidophenyl)-1H-pyrrolo[2,3-b]pyridin-5-yl]-3,4-dimethyl-1H-pyrazole-5-carboxamide]",< 10
19,"Cc1cc(C(=O)Nc2cnc3[nH]c(-c4ccc(F)cc4)cc3c2)nn1C [P-2119, N-[2-(4-fluorophenyl)-1H-pyrrolo[2,3-b]pyridin-5-yl]-1,5-dimethyl-pyrazole-3-carboxamide]",< 10
20,"CC(=O)Nc1ccc(-c2cc3cc(NC(=O)c4[nH]nc(C)c4C)cnc3[nH]2)cn1 [P-2133, N-[2-(6-acetamido-3-pyridyl)-1H-pyrrolo[2,3-b]pyridin-5-yl]-3,4-dimethyl-1H-pyrazole-5-carboxamide]",< 10
21,"Cc1[nH]nc(C(=O)Nc2cnc3[nH]c(-c4ccnc(C5CCN(C(=O)C6CC6)CC5)c4)cc3c2)c1C [P-2207, N-(2-(2-(1-(cyclopropanecarbonyl)piperidin-4-yl)pyridin-4-yl)-1H-pyrrolo[2,3-b]pyridin-5-yl)-4,5-dimethyl-1H-pyrazole-3-carboxamide]",< 10
22,"Cc1n[nH]c(C(=O)Nc2cnc3[nH]c(-c4ccc(C#N)cc4)cc3c2)c1C [P-2092, N-[2-(4-cyanophenyl)-1H-pyrrolo[2,3-b]pyridin-5-yl]-3,4-dimethyl-1H-pyrazole-5-carboxamide]",< 10
23,"Cc1n[nH]c(C(=O)Nc2cnc3[nH]c(-c4ccc(N5CCCC5)cc4)cc3c2)c1C [P-2125, 3,4-dimethyl-N-[2-(4-pyrrolidin-1-ylphenyl)-1H-pyrrolo[2,3-b]pyridin-5-yl]-1H-pyrazole-5-carboxamide]",< 10
24,"CCOc1cc(-c2cc3cc(NC(=O)c4n[nH]c(C)c4C)cnc3[nH]2)ccn1 [P-2247, N-(2-(2-ethoxypyridin-4-yl)-1H-pyrrolo[2,3-b]pyridin-5-yl)-4,5-dimethyl-1H-pyrazole-3-carboxamide]",< 10
25,"Cc1n[nH]c(C(=O)Nc2cnc3[nH]c(-c4ccc(C(=O)N5CCOCC5)cc4)cc3c2)c1C [P-2138, 3,4-dimethyl-N-[2-[4-(morpholine-4-carbonyl)phenyl]-1H-pyrrolo[2,3-b]pyridin-5-yl]-1H-pyrazole-5-carboxamide]",< 10
26,"Cc1[nH]nc(C(=O)Nc2cnc3[nH]c(-c4cnn(C5CCN(C(=O)C6CC6)CC5)c4C)cc3c2)c1C [P-2200, N-(2-(1-(1-(cyclopropanecarbonyl)piperidin-4-yl)-5-methyl-1H-pyrazol-4-yl)-1H-pyrrolo[2,3-b]pyridin-5-yl)-4,5-dimethyl-1H-pyrazole-3-carboxamide]",< 10
27,"O=C(Nc1cnc2[nH]c(-c3ccccc3)cc2c1)c1n[nH]c(Cl)c1C(F)(F)F [P-2233, 5-chloro-N-(2-phenyl-1H-pyrrolo[2,3-b]pyridin-5-yl)-4-(trifluoromethyl)-1H-pyrazole-3-carboxamide]",< 10
28,"Cc1nc(C)c(-c2cc3cc(NC(=O)c4[nH]nc(C)c4C)cnc3[nH]2)s1 [P-2139, N-[2-(2,4-dimethylthiazol-5-yl)-1H-pyrrolo[2,3-b]pyridin-5-yl]-3,4-dimethyl-1H-pyrazole-5-carboxamide]",< 10
29,"COc1cccc(-c2cc3cc(NC(=O)c4[nH]nc(C)c4C)cnc3[nH]2)c1F [P-2129, N-[2-(2-fluoro-3-methoxy-phenyl)-1H-pyrrolo[2,3-b]pyridin-5-yl]-3,4-dimethyl-1H-pyrazole-5-carboxamide]",< 10
